Reference: PubChem BioAssay AID2060613 (Molecular Pharmacology Branch, DTP, NCI, 2025)
pIC50: −log10 of the molar value. Values joined by “and” are separate entries in the source; they are usually repeats but may differ in a detail not shown here. Equal entries are not always repeated.

Test system: 233499-124-R-J3-PDC complex spheroid viability
Assay: Anticancer human tumor 233499-124-R-J3-PDC patient-derived colon adenocarcinoma cell line growth inhibition [CLK]
Conditions: for viability, T/C: stronger effect = lower value
Summary of the method: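 Patient-derived tumor cells grown as complex spheroids with HUVEC endothelial cells and mesenchymal stem cells, treated with drug combinations. Concentrations descend in half-log steps from near clinical Cmax, or from 10 microM if Cmax unknown.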

[1] = curve of first compound, second compound 0.0316 µM
[2] = curve of first compound, second compound 0.1 µM
[3] = curve of first compound, second compound 0.316 µM
[4] = curve of first compound, second compound 1 µM
[5] = curve of first compound, second compound 3.16 µM
[6] = curve of first compound, second compound 10 µM
[7] = second compound 0.0316 µM, first compound 0.0316 µM
[8] = second compound 0.0316 µM, first compound 0.1 µM
[9] = second compound 0.0316 µM, first compound 0.316 µM
[10] = second compound 0.0316 µM, first compound 1 µM
[11] = second compound 0.0316 µM, first compound 3.16 µM
[12] = second compound 0.0316 µM, first compound 10 µM
[13] = second compound 0.1 µM, first compound 0.0316 µM
[14] = second compound 0.1 µM, first compound 0.1 µM
[15] = second compound 0.1 µM, first compound 0.316 µM
[16] = second compound 0.1 µM, first compound 1 µM
[17] = second compound 0.1 µM, first compound 3.16 µM
[18] = second compound 0.1 µM, first compound 10 µM
[19] = second compound 0.316 µM, first compound 0.0316 µM
[20] = second compound 0.316 µM, first compound 0.1 µM
[21] = second compound 0.316 µM, first compound 0.316 µM
[22] = second compound 0.316 µM, first compound 1 µM
[23] = second compound 0.316 µM, first compound 3.16 µM
[24] = second compound 0.316 µM, first compound 10 µM
[25] = second compound 1 µM, first compound 0.0316 µM
[26] = second compound 1 µM, first compound 0.1 µM
[27] = second compound 1 µM, first compound 0.316 µM
[28] = second compound 1 µM, first compound 1 µM
[29] = second compound 1 µM, first compound 3.16 µM
[30] = second compound 1 µM, first compound 10 µM
[31] = second compound 3.16 µM, first compound 0.0316 µM
[32] = second compound 3.16 µM, first compound 0.1 µM
[33] = second compound 3.16 µM, first compound 0.316 µM
[34] = second compound 3.16 µM, first compound 1 µM
[35] = second compound 3.16 µM, first compound 3.16 µM
[36] = second compound 3.16 µM, first compound 10 µM
[37] = second compound 10 µM, first compound 0.0316 µM
[38] = second compound 10 µM, first compound 0.1 µM
[39] = second compound 10 µM, first compound 0.316 µM
[40] = second compound 10 µM, first compound 1 µM
[41] = second compound 10 µM, first compound 3.16 µM
[42] = second compound 10 µM, first compound 10 µM
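Also: spheroids exposed to the drug combinations for seven days.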
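For viability, T/C in this document: percent viability relative to DMSO vehicle control wells taken as 100%.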

How did the pIC50 [1] turn out when `C=C(F)C(=O)N1CCN(c2nc(OCC3CCCN3C)nc3c2CCN(c2cccc4cccc(Cl)c24)C3)CC1CC#N` (stereo not given) + CN1CCN(c2cc(C(=O)Nc3cc4cc(-c5cnn(C)c5)ccc4cn3)ccn2)CC1 was run?
Its pIC50 is less than 5.00.

And the pIC50 [2]?
Its pIC50 is less than 5.00.

What about the pIC50 [3] of the same compound?
Its pIC50 is 5.02.

What about the pIC50 [4] of the same compound?
Its pIC50 is greater than 7.50.

And the pIC50 [5]?
The pIC50 was greater than 7.50.

What about the pIC50 [6] of the same compound?
The pIC50 was greater than 7.50.

And the viability, T/C [7]?
The viability, T/C was 95.2%.

What about the viability, T/C [8] of the same compound?
The viability, T/C was 104%.

What about the viability, T/C [9] of the same compound?
Its viability, T/C is 91.5%.

What about the viability, T/C [10] of the same compound?
Its viability, T/C is 100%.

What about the viability, T/C [11] of the same compound?
Its viability, T/C is 94.1%.

And the viability, T/C [12]?
Its viability, T/C is 84%.

What about the viability, T/C [13] of the same compound?
Its viability, T/C is 99.6%.

And the viability, T/C [14]?
Its viability, T/C is 90.9%.

What about the viability, T/C [15] of the same compound?
The viability, T/C was 103%.

What about the viability, T/C [16] of the same compound?
The viability, T/C was 96%.

And the viability, T/C [17]?
Its viability, T/C is 95.2%.

And the viability, T/C [18]?
The viability, T/C was 85.1%.

What about the viability, T/C [19] of the same compound?
Its viability, T/C is 93.6%.

What about the viability, T/C [20] of the same compound?
Its viability, T/C is 90.3%.

What about the viability, T/C [21] of the same compound?
Its viability, T/C is 82.9%.

What about the viability, T/C [22] of the same compound?
The viability, T/C was 98.6%.

And the viability, T/C [23]?
The viability, T/C was 87.8%.

What about the viability, T/C [24] of the same compound?
Its viability, T/C is 48.6%.

And the viability, T/C [25]?
The viability, T/C was 1.94%.

And the viability, T/C [26]?
The viability, T/C was 3.93%.

What about the viability, T/C [27] of the same compound?
The viability, T/C was 4.58%.

What about the viability, T/C [28] of the same compound?
Its viability, T/C is 0.73%.

And the viability, T/C [29]?
The viability, T/C was 5.08%.

What about the viability, T/C [30] of the same compound?
The viability, T/C was 0.83%.

And the viability, T/C [31]?
Its viability, T/C is 0.56%.

What about the viability, T/C [32] of the same compound?
Its viability, T/C is 0.88%.

What about the viability, T/C [33] of the same compound?
Its viability, T/C is 0.69%.

What about the viability, T/C [34] of the same compound?
The viability, T/C was 0.56%.

What about the viability, T/C [35] of the same compound?
Its viability, T/C is 0.42%.

And the viability, T/C [36]?
Its viability, T/C is 0.12%.

And the viability, T/C [37]?
Its viability, T/C is 0.42%.

And the viability, T/C [38]?
The viability, T/C was 0.74%.

What about the viability, T/C [39] of the same compound?
Its viability, T/C is 0.44%.

What about the viability, T/C [40] of the same compound?
The viability, T/C was 0.95%.

What about the viability, T/C [41] of the same compound?
Its viability, T/C is 0.32%.

What about the viability, T/C [42] of the same compound?
The viability, T/C was 0.72%.

What does the source list for `C=C(F)C(=O)N1CCN(c2nc(OCC3CCCN3C)nc3c2CCN(c2cccc4cccc(Cl)c24)C3)CC1CC#N` (stereo not given) + CNC(=O)c1ccc(Nc2nc(OC3CCCC3)c3c(-c4ccc5nc(C)oc5c4)c[nH]c3n2)c(OC)c1?
pIC50 [1]: 5.06; pIC50 [2]: 5.33; pIC50 [3]: 5.25; pIC50 [4]: 5.25; pIC50 [5]: 5.26; pIC50 [6]: 5.28; viability, T/C [7]: 92.1%; viability, T/C [8]: 84.5%; viability, T/C [9]: 99%; viability, T/C [10]: 89.6%; viability, T/C [11]: 93.5%; viability, T/C [12]: 44.5%; viability, T/C [13]: 65.9%; viability, T/C [14]: 73.2%; viability, T/C [15]: 81.3%; viability, T/C [16]: 70.2%; viability, T/C [17]: 61.4%; viability, T/C [18]: 28%; viability, T/C [19]: 76.7%; viability, T/C [20]: 64.9%; viability, T/C [21]: 69.7%; viability, T/C [22]: 72.8%; viability, T/C [23]: 79.2%; viability, T/C [24]: 26.7%; viability, T/C [25]: 71.4%; viability, T/C [26]: 82.5%; viability, T/C [27]: 78.4%; viability, T/C [28]: 64%; viability, T/C [29]: 71.2%; viability, T/C [30]: 30%; viability, T/C [31]: 76.8%; viability, T/C [32]: 77.3%; viability, T/C [33]: 75.8%; viability, T/C [34]: 73.1%; viability, T/C [35]: 75.7%; viability, T/C [36]: 22.9%; viability, T/C [37]: 75.5%; viability, T/C [38]: 66.3%; viability, T/C [39]: 73.8%; viability, T/C [40]: 66.5%; viability, T/C [41]: 74.3%; viability, T/C [42]: 22%

What does the source list for `Nc1ccn(C2OC(CO)C(O)C2(F)F)c(=O)n1` (stereo not given) + CN1CCN(c2cc(C(=O)Nc3cc4cc(-c5cnn(C)c5)ccc4cn3)ccn2)CC1?
pIC50 [1]: 6.50; pIC50 [2]: 6.66; pIC50 [3]: 6.77; pIC50 [4]: > 7.50; pIC50 [5]: > 7.50; pIC50 [6]: > 7.50; viability, T/C [7]: 80%; viability, T/C [8]: 95.4%; viability, T/C [9]: 49.6%; viability, T/C [10]: 34.2%; viability, T/C [11]: 37%; viability, T/C [12]: 27.2%; viability, T/C [13]: 101%; viability, T/C [14]: 92.1%; viability, T/C [15]: 29.6%; viability, T/C [16]: 19.2%; viability, T/C [17]: 23.2%; viability, T/C [18]: 21.4%; viability, T/C [19]: 101%; viability, T/C [20]: 71%; viability, T/C [21]: 24.7%; viability, T/C [22]: 7.57%; viability, T/C [23]: 12.1%; viability, T/C [24]: 5.63%; viability, T/C [25]: 1.31%; viability, T/C [26]: 0.86%; viability, T/C [27]: 0.41%; viability, T/C [28]: 1.47%; viability, T/C [29]: 0.37%; viability, T/C [30]: 0.46%; viability, T/C [31]: 0.7%; viability, T/C [32]: 0.69%; viability, T/C [33]: 0.53%; viability, T/C [34]: 0.46%; viability, T/C [35]: 0.48%; viability, T/C [36]: 0.62%; viability, T/C [37]: 0.45%; viability, T/C [38]: 0.5%; viability, T/C [39]: 0.68%; viability, T/C [40]: 0.58%; viability, T/C [41]: 0.44%; viability, T/C [42]: 0.38%

With `O=c1[nH]cc(F)c(=O)[nH]1` as the compound, how does the viability, T/C (compound 0.0316 µM) read?
Its viability, T/C is 94.9% and 97.3%.

What about the viability, T/C (compound 0.1 µM) of the same compound?
Its viability, T/C is 106% and 96%.

What about the viability, T/C (compound 0.316 µM) of the same compound?
The viability, T/C was 55.2% and 69.3%.

What about the viability, T/C (compound 1 µM) of the same compound?
Its viability, T/C is 50.6% and 37.5%.

And the viability, T/C (compound 3.16 µM)?
The viability, T/C was 31.1% and 20.9%.

And the viability, T/C (compound 10 µM)?
Its viability, T/C is 30.8% and 23.1%.

What about the pIC50 (curve of compound) of the same compound?
The pIC50 was 6.35 and 6.20.

`C=CC(=O)N1CCN(c2nc(=O)n(-c3c(C)ccnc3C(C)C)c3nc(-c4c(O)cccc4F)c(F)cc23)C(C)C1` (stereo not given) was tested. Which viability, T/C (compound 0.0316 µM) did it give?
The viability, T/C was 90.5% and 101%.

What about the viability, T/C (compound 0.1 µM) of the same compound?
The viability, T/C was 81.9% and 87.6%.

What about the viability, T/C (compound 0.316 µM) of the same compound?
Its viability, T/C is 90.6% and 110%.

What about the viability, T/C (compound 1 µM) of the same compound?
Its viability, T/C is 87.6% and 101%.

What about the viability, T/C (compound 3.16 µM) of the same compound?
Its viability, T/C is 95% and 104%.

And the viability, T/C (compound 10 µM)?
Its viability, T/C is 96% and 92.6%.

What about the pIC50 (curve of compound) of the same compound?
The pIC50 was less than 5.00.
